Patent US20230150953A1, “SUBSTITUTED ISOPHTHALIC ACID DIAMIDES” (Bayer Aktiengesellschaft, priority 2020, published 2023)

Assays:
Format in all cases: in vivo
[1] = test system: ABUTH Abutilon theophrasti; assay: Pre-emergence herbicidal action against harmful plants; settings: scored visually after 3 weeks vs untreated controls
Description: (§1) The abbreviations used for the harmful plants mean: • ABUTH Abutilon theophrasti ALOMY Alopecurus myosuroides • AVEFA Avena fatua AMARE Amaranthus retroflexus • CYPES Cyperus esculentus DIGSA Digitaria sanguinalis • ECHCG Echinochloa crus-galli HORMU Hordeum murinum • LOLMU Lolium multiflorum LOLRI Lolium rigidum • MATIN Matricaria inodora PHBPU Pharbitis purpurea • POLCO Polygonum convolvulus SETVI Setaria viridis • STEME Stellaria media VERPE Veronica persica • VIOTR Viola tricolor 1. Pre-Emergence Herbicidal Action Against Harmful Plants Seeds of monocotyledonous and dicotyledonous weed plants and crop plants are laid out in sandy loam soil in wood-fiber pots and covered with soil. The compounds of the invention, formulated in the form of wettable powders (WP) or as emulsion concentrates (EC), are then applied to the surface of the covering soil in the form of an aqueous suspension or emulsion at a water application rate equivalent to 600 to 800 l/ha, with addition of 0.2% wetting agent. After the treatment, the pots are placed in a greenhouse and kept under good growth conditions for the trial plants. The damage to the test plants is scored visually after a test period of 3 weeks by comparison with untreated controls (herbicidal activity in percent (%): 100% activity=the plants have died, 0% activity=like control plants). […] The tables below illustrate, in an illustrative manner, the post-emergence herbicidal action of the compounds of the invention, the herbicidal activity being stated in percent.

[2] = test system: ALOMY Alopecurus myosuroides; assay: as above; settings: scored visually after 3 weeks vs untreated controls
Description: as §1

[3] = test system: AMARE Amaranthus retroflexus; assay: as above; settings: scored visually after 3 weeks vs untreated controls
Description: as §1

[4] = test system: DIGSA Digitaria sanguinalis; assay: as above; settings: scored visually after 3 weeks vs untreated controls
Description: as §1

MATIN Matricaria inodora [5] = assay: as above; settings: scored visually after 3 weeks vs untreated controls
Description: as §1

SETVI Setaria viridis [6] = assay: as above; settings: scored visually after 3 weeks vs untreated controls
Description: as §1

[7] = test system: AMARE Amaranthus retroflexus; assay: Post-emergence herbicidal action against harmful plants; settings: one-leaf stage, assessed visually after about 3 weeks vs untreated controls
Description: (§2) The abbreviations used for the harmful plants mean: • ABUTH Abutilon theophrasti ALOMY Alopecurus myosuroides • AVEFA Avena fatua AMARE Amaranthus retroflexus • CYPES Cyperus esculentus DIGSA Digitaria sanguinalis • ECHCG Echinochloa crus-galli HORMU Hordeum murinum • LOLMU Lolium multiflorum LOLRI Lolium rigidum • MATIN Matricaria inodora PHBPU Pharbitis purpurea • POLCO Polygonum convolvulus SETVI Setaria viridis • STEME Stellaria media VERPE Veronica persica • VIOTR Viola tricolor 2. Post-Emergence Herbicidal Action Against Harmful Plants Seeds of monocotyledonous and dicotyledonous weed and crop plants are laid out in sandy loam soil in wood-fiber pots, covered with soil and cultivated in a greenhouse under good growth conditions. 2 to 3 weeks after sowing, the test plants are treated at the one-leaf stage. The compounds of the invention, formulated in the form of wettable powders (WP) or as emulsion concentrates (EC), are then sprayed onto the green parts of the plants in the form of an aqueous suspension or emulsion at a water application rate equivalent to 600 to 800 l/ha, with addition of 0.2% wetting agent. After the test plants have been left to stand in the greenhouse under optimal growth conditions for about 3 weeks, the action of the preparations is assessed visually in comparison to untreated controls (herbicidal action in percent (%): 100% activity=the plants have died, 0% activity=like control plants). […] The tables below illustrate, in an illustrative manner, the post-emergence herbicidal action of the compounds of the invention, the herbicidal activity being stated in percent.

[8] = test system: ECHCG Echinochloa crus-galli; assay: as above; settings: one-leaf stage, assessed visually after about 3 weeks vs untreated controls
Description: as §2

PHBPU Pharbitis purpurea [9] = assay: as above; settings: one-leaf stage, assessed visually after about 3 weeks vs untreated controls
Description: as §2

SETVI Setaria viridis [10] = assay: as above; settings: one-leaf stage, assessed visually after about 3 weeks vs untreated controls
Description: as §2

[11] = test system: ECHCG Echinochloa crus-galli; assay: Pre-emergence herbicidal action against harmful plants; settings: scored visually after 3 weeks vs untreated controls
Description: as §1

MATIN Matricaria inodora [12] = assay: Post-emergence herbicidal action against harmful plants; settings: one-leaf stage, assessed visually after about 3 weeks vs untreated controls
Description: as §2

[13] = test system: POLCO Polygonum convolvulus; assay: as above; settings: one-leaf stage, assessed visually after about 3 weeks vs untreated controls
Description: as §2

[14] = test system: ABUTH Abutilon theophrasti; assay: as above; settings: one-leaf stage, assessed visually after about 3 weeks vs untreated controls
Description: as §2

[15] = test system: POLCO Polygonum convolvulus; assay: Pre-emergence herbicidal action against harmful plants; settings: 80 g/ha, scored visually after 3 weeks vs untreated controls
Description: as §1

VERPE Veronica persica = assay: as above; settings: scored visually after 3 weeks vs untreated controls
Description: as §1

[16] = test system: ALOMY Alopecurus myosuroides; assay: Post-emergence herbicidal action against harmful plants; settings: one-leaf stage, assessed visually after about 3 weeks vs untreated controls
Description: as §2

AVEFA Avena fatua = assay: Pre-emergence herbicidal action against harmful plants; settings: scored visually after 3 weeks vs untreated controls
Description: as §1

LOLRI Lolium rigidum = assay: as above; settings: scored visually after 3 weeks vs untreated controls
Description: as §1

PHBPU Pharbitis purpurea [17] = assay: as above; settings: 80 g/ha, scored visually after 3 weeks vs untreated controls
Description: as §1

[18] = test system: DIGSA Digitaria sanguinalis; assay: Post-emergence herbicidal action against harmful plants; settings: one-leaf stage, assessed visually after about 3 weeks vs untreated controls
Description: as §2

SMILES	Pre-emergence action at 80 g/ha against ABUTH in % [1] [%]	Pre-emergence action at 80 g/ha against ALOMY in % [2] [%]	Pre-emergence action at 20 g/ha against AMARE in % [3] [%]	Pre-emergence action at 80 g/ha against AMARE in % [3] [%]	Pre-emergence action at 80 g/ha against DIGSA in % [4] [%]	Pre-emergence action at 20 g/ha against MATIN in % (MATIN Matricaria inodora [5]) [%]	Pre-emergence action at 80 g/ha against MATIN in % (MATIN Matricaria inodora [5]) [%]	Pre-emergence action at 80 g/ha against SETVI in % (SETVI Setaria viridis [6]) [%]	Post-emergence action at 5 g/ha against AMARE in % [7] [%]	Post-emergence action at 20 g/ha against AMARE in % [7] [%]	Post-emergence action at 20 g/ha against ECHCG in % [8] [%]	Pre-emergence action at 20 g/ha against ABUTH in % [1] [%]	Pre-emergence action at 20 g/ha against DIGSA in % [4] [%]	Pre-emergence action at 80 g/ha against ECHCG in % [11] [%]	Post-emergence action at 20 g/ha against MATIN in % (MATIN Matricaria inodora [12]) [%]	Pre-emergence action at 80 g/ha against POLCO in % [15] [%]	Post-emergence action at 20 g/ha against ALOMY in % [16] [%]	other results
CNC(=O)c1c(C(F)(F)F)cc(F)c(C(=O)Nc2nnnn2C)c1C [Example 1-92]	100	80	90	100	100	90	90	100	80	90	80	–	–	–	–	–	–	Pre-emergence action at 20 g/ha against SETVI in % (SETVI Setaria viridis [6]; 20 g/ha): 80%; Post-emergence action at 20 g/ha against PHBPU in % (PHBPU Pharbitis purpurea [9]): 80%; Post-emergence action at 20 g/ha against SETVI in % (SETVI Setaria viridis [10]): 80%
Cc1c(C(=O)Nc2nnnn2C)c(F)cc(C(F)(F)F)c1C(=O)N(C)C1CC1 [Example 1-97]	100	80	100	100	100	90	100	80	–	–	–	100	80	90	80	–	–	Post-emergence action at 20 g/ha against POLCO in % [13]: 100%
CNC(=O)c1c(C(F)(F)F)cc(F)c(C(=O)Nc2nnnn2C)c1Cl [Example 1-180]	100	–	100	100	80	–	100	–	80	90	–	–	80	–	–	–	–	Post-emergence action at 20 g/ha against ABUTH in % [14]: 90%
CCNC(=O)c1c(C(F)(F)F)cc(F)c(C(=O)Nc2nnnn2C)c1Cl [Example 1-181]	100	–	100	100	80	–	100	–	90	90	–	–	–	–	–	–	–	Post-emergence action at 20 g/ha against ABUTH in % [14]: 90%
Cn1nnnc1NC(=O)c1c(F)cc(C(F)(F)F)c(C(=O)NC2CC2)c1Cl [Example 1-182]	100	80	100	100	100	–	100	–	80	100	80	–	90	–	–	90	80	Pre-emergence action at 80 g/ha against VERPE in % (VERPE Veronica persica): 100%
Cc1c(C(=O)Nc2nnnn2C)c(F)cc(C(F)(F)F)c1C(=O)NCC1CC1 [Example 1-384]	100	80	100	100	100	–	80	90	80	90	80	–	100	100	–	90	80	Pre-emergence action at 80 g/ha against AVEFA in % (AVEFA Avena fatua): 80%; Post-emergence action at 5 g/ha against ECHCG in % ([8]; 5 g/ha): 80%
CCn1nnnc1NC(=O)c1cc(Cl)c(C(F)(F)F)c(C(=O)NC2CC2)c1C [Example 2-85]	100	90	100	100	100	90	100	100	80	90	–	80	80	80	80	80	80	Pre-emergence action at 20 g/ha against ALOMY in % ([2]; 20 g/ha): 80%; Pre-emergence action at 80 g/ha against AVEFA in % (AVEFA Avena fatua): 80%; Pre-emergence action at 80 g/ha against LOLRI in % (LOLRI Lolium rigidum): 80%; Pre-emergence action at 80 g/ha against PHBPU in % (PHBPU Pharbitis purpurea [17]): 90%; Post-emergence action at 20 g/ha against DIGSA in % [18]: 90%; Post-emergence action at 5 g/ha against PHBPU in % (PHBPU Pharbitis purpurea [9]; 5 g/ha): 80%; Post-emergence action at 20 g/ha against PHBPU in % (PHBPU Pharbitis purpurea [9]): 90%; Post-emergence action at 20 g/ha against POLCO in % [13]: 80%
CCn1nnnc1NC(=O)c1c(F)cc(C(F)(F)F)c(C(=O)N(C)C2CC2)c1C [Example 2-97]	100	–	100	100	100	90	100	–	–	–	–	100	90	80	80	–	–	Pre-emergence action at 20 g/ha against VERPE in % (VERPE Veronica persica; 20 g/ha): 80%; Pre-emergence action at 80 g/ha against VERPE in % (VERPE Veronica persica): 80%
CCn1nnnc1NC(=O)c1c(F)cc(C(F)(F)F)c(C(=O)NCC(F)F)c1C [Example 2-385]	100	–	–	100	100	80	90	–	80	90	–	–	90	80	–	90	–	Post-emergence action at 20 g/ha against SETVI in % (SETVI Setaria viridis [10]): 80%
